Where a name gives a salt, the structure may show the parent alone.
Tested on: MLO-Y4 osteocytes
Experiment: High-throughput drug screening of primary cilia length and incidence
Format: cell-based
Settings: 10 μM, 16 hours, triplicate; normalized to vehicle control; standard deviation away from the population average
Procedure: MLO-Y4 osteocytes were maintained on collagen I-coated dishes in MEMα (Life_Technologies) supplemented with 5% fetal bovine serum (FBS), 5% calf serum (CS), and 1% penicillin/streptomycin (P/S) at 37° C. and 5% CO2. Osteocytes were then seeded onto 384-well collagen-coated plates for 72 hours before fixation. […] These libraries include Tocris, Sigma LOPAC, Selleck Chemical, Prestwick, and Spectrum commercially available compound libraries. All cell seeding and plate handling was performed with the Perkin Elmer cell:explorer workstation.
Cells were fixed in 4% paraformaldehyde and permeabilized with 0.1% Triton-X 100 (Sigma). 10% goat serum (vendor) was used for blocking. Cilia were stained using a monoclonal antibody against acetylated α-tubulin (1:20) from a C3B9 hybridoma cell line, and visualized with A F488 (1:1000, ThermoFisher). Nuclei were visualized with Hoechst. Cells were imaged using a GE INCell 2000 high-throughput imager at 40× magnification. 4 fields of view were taken per well.
Each pair of nuclei and cilia images was first analyzed individually, then the entire population was examined to evaluate each compound's effect on cilia length and incidence. A custom MATLAB script was developed to perform all image analysis. This script first utilizes an enhanced implementation of a watershed transform, which is a segmentation tool which enables detection of similarly shaped overlapping particles in noisy images by the procedural whittling down of pixels found close to the edge of such particles. The augmentation of the algorithm incorporates thresholding for noise removal based on signal intensity and object size, nuclei dilation to exclude non-cellular artifacts, as well as skeletonization of cilia to quantify length. The results of the analysis are number of nuclei, number of cilia, and average cilia length in each image.
Compounds were selected based on deviation from the population mean. Each well was normalized to vehicle control images on each plate, allowing the establishment of a normalized population mean. Hits were chosen based on compounds whose triplicate mean was furthest (based on standard deviation away) from the population mean. […] Compounds were classified based on mechanism of action.
To identify compounds that modulate primary cilia formation a high-throughput platform was developed to automate cell culture, staining, imaging, and analysis, as shown in schematic form in FIG. 18. […] Cells were cultured on 384-well plates, and treated with small molecules with known biologic activity, enabling classification of mechanisms of action. Drug treatment was applied for 16 hours at 10 μM concentration, performed in triplicate, before fixation and immunostaining of primary cilia. Cells were then imaged using the GE INCell 2000 High Content Analyzer, capturing 4 fields of view per well at 40× magnification. Additionally, each plate contains 8 wells of DMSO vehicle control.
A MATLAB script was developed to detect and analyze changes in ciliogenesis. […] A representative exemplary image (FIG. 19A) is cropped to better display features, scale bar represents 30 μm. A custom MATLAB script was used to identify nuclei and cilia for analysis (FIG. 19B). […] Objects are further filtered based on size and signal intensity.
Cilia length and incidence for each field of view were normalized to vehicle control on that individual plate. This allowed development of a normalized population average and standard deviation. […] To control for toxic effects only small molecules with at least 40% viability, based on number of nuclei versus control, were selected as hits. Furthermore, compounds repeated between multiple libraries eliciting the same effect on cilia length or incidence were excluded, such that only one of the repeated compounds was selected as a hit.

| Structure (SMILES) | Average Incidence SD Away [SD] | Average Length SD Away [SD] |
| --- | --- | --- |
| Cc1cc2c(s1)Nc1ccccc1N=C2N1CCN(C)CC1 [Olanzapine (Zyprexa), Olanzapine] | 1.609 | – |
| Cc1nccn1CC1CCc2c(c3ccccc3n2C)C1=O (centres unmarked) [Ondansetron (Zofran), Ondansetron] | 1.506 | – |
| COC(=O)Nc1nc2ccc([S+]([O-])c3ccccc3)cc2[nH]1 (centres unmarked) [Oxfendazole] | 2.268 | 1.574 |
| CCCOc1ccc2nc(NC(=O)OC)[nH]c2c1 [Oxibendazole] | 4.084 | – |
| O=C(O)/C=C/c1ccc(Cn2ccnc2)cc1 [Ozagrel HCl] | 1.683 | – |
| N=C1C=CC(=C(c2ccc(N)cc2)c2ccc(N)cc2)C=C1 [PARAROSANILINE PAMOATE] | – | 2.389 |
| C=C(C)[C@H]1CC=C(C(=O)O)CC1 [PERILLIC ACID (−)] | – | 2.196 |
| Cl.O=C1NCCc2[nH]c(-c3ccncc3)cc21 [PHA 767491 hydrochloride] | – | 1.724 |
| Nc1nccc(-c2ccc3noc(-c4ccc(Cl)cc4)c3c2)n1 [PIM 1 Inhibitor 2] | – | 3.223 |
| CCc1nc(N)nc(N)c1-c1ccc(Cl)cc1 [PYRIMETHAMINE] | 1.762 | 3.194 |
| Cc1cc(/C=C/c2ccc3cc(N(C)C)ccc3[n+]2C)c(C)n1-c1ccccc1 [PYRVINIUM PAMOATE] | – | 2.834 |
| CCn1cc(C(=O)O)c(=O)c2cc(F)c(N3CCN(C)CC3)cc21 [Pefloxacin mesylate] | 1.682 | – |
| Nc1nc2[nH]cc(CCc3ccc(C(=O)N[C@@H](CCC(=O)O)C(=O)O)cc3)c2c(=O)[nH]1 [Pemetrexed] | 2.083 | 2.765 |
| O=C1c2ccccc2C(=O)C1c1ccccc1 [Phenindione (Rectadione), Phenindione] | 1.688 | – |
| CCc1ccc(CCOc2ccc(CC3SC(=O)NC3=O)cc2)nc1 (centres unmarked) [Pioglitazone hydrochloride (Actos), Pioglitazone hydrochloride] | 2.52 | – |
| COc1cc(/C=C/C(=O)N2CCC=CC2=O)cc(OC)c1OC [Piperlongumine] | – | 3.198 |
| C#CCC(Cc1cnc2nc(N)nc(N)c2n1)c1ccc(C(=O)N[C@@H](CCC(=O)O)C(=O)O)cc1 (some centres unmarked) [Pralatrexate(Folotyn), Pralatrexate] | 2.193 | 2.105 |
| CCCOc1ccc(C(=O)OCCN(CC)CC)cc1N [Proparacaine HCl] | 1.523 | – |
| CCCc1cc(=O)[nH]c(=S)[nH]1 [Propylthiouracil] | 1.659 | – |
| C=C[C@H]1C[N@@]2CC[C@H]1C[C@@H]2[C@@H](O)c1ccnc2ccc(OC)cc12 [QUINIDINE GLUCONATE] | – | 1.825 |
| C=C[C@H]1C[N@@]2CC[C@H]1C[C@H]2[C@H](O)c1ccnc2ccc(OC)cc12 [QUININE SULFATE] | – | 1.802 |
| COC(=O)[C@H]1[C@H]2C[C@@H]3c4[nH]c5cc(OC)ccc5c4CCN3C[C@H]2C[C@@H](OC(=O)c2cc(OC)c(OC)c(OC)c2)[C@@H]1OC [RESERPINE] | – | 1.972 |
| COc1ccccc1OCC(O)CN1CCN(CC(=O)Nc2c(C)cccc2C)CC1 (centres unmarked) [Ranolazine (Ranexa), Ranolazine] | 1.565 | – |
| CC1=C(/C=C/C(C)=C/C=C/C(C)=C/C(=O)Nc2ccc(O)cc2)C(C)(C)CCC1 [Retinoic acid p-hydroxyanilide] | – | 2.487 |
| CCN(C)C(=O)Oc1cccc([C@H](C)N(C)C)c1 [Rivastigmine tartrate (Exelon), Rivastigmine tartrate] | 1.664 | – |
| CC(C)c1nc(N(C)S(C)(=O)=O)nc(-c2ccc(F)cc2)c1/C=C/[C@@H](O)C[C@@H](O)CC(=O)O [Rosuvastatin calcium (Crestor), Rosuvastatin calcium] | 1.644 | – |
| COc1ccc2cccc(N3CCN(CCNC(=O)c4ccc(F)cc4)CC3)c2c1.Cl [S 14506 hydrochloride] | – | 1.54 |

| Structure (SMILES) | Average Incidence SD Away [SD] | Average Length SD Away [SD] |
| --- | --- | --- |
| Cc1nn(-c2ccccc2)c(C)c1/C=N/N1CCN(Cc2ccccc2)CC1 [SANT-1] | – | 1.811 |
| C[S+]([O-])c1ccc(-c2nc(-c3ccc(F)cc3)c(-c3ccncc3)[nH]2)cc1 (centres unmarked) [SB 203580] | – | 1.797 |
| Cn1ccc2cc3c(cc21)CCN3C(=O)Nc1cccnc1 [SB 206553 hydrochloride] | – | 1.704 |
| COc1cc2c(cc1C(F)(F)F)N(C(=O)Nc1cc(F)cc(-c3cccnc3)c1)CC2 [SB 228357] | – | 2.332 |
| COc1nccc(-c2c(-c3ccc(F)cc3)ncn2C2CCC(O)CC2)n1 (centres unmarked) [SB 239063] | 1.795 | 4 |
| Cc1cc(NC(=O)Nc2ccc(N(C)C)cc2)c2cc(F)cc(F)c2n1 [SB 408124] | – | 2.398 |
| O=C1NC(=O)C(c2ccccc2[N+](=O)[O-])=C1Nc1ccc(O)c(Cl)c1 [SB 415286] | – | 2.05 |
| O=C1C=C2C=C[C@@H]3C[C@@]2(O1)[C@H]1CCCCN31 [SECURININE] | – | 1.502 |
| Br.C=CCN1CCc2cc(O)c(O)cc2C(c2ccccc2)C1 (centres unmarked) [SKF 77434 hydrobromide] | – | 1.527 |
| Fc1ccc(-c2nc3n(c2-c2ccncc2)CCS3)cc1 [SKF 86002 dihydrochloride] | – | 1.549 |
| CCCC(=O)[O-].[Na+] [Sodium butyrate] | 2.3981 | – |
| CNC(=O)c1cc(Oc2ccc(NC(=O)Nc3ccc(Cl)c(C(F)(F)F)c3)cc2)ccn1 [Sorafenib (Nexavar), Sorafenib] | 1.678 | 1.5 |
| Cc1cc(NS(=O)(=O)c2ccc(N)cc2)no1 [Sulfamethoxazole] | 1.767 | – |
| Nc1nc2nc[nH]c2c(=S)[nH]1 [THIOGUANINE] | – | 1.675 |
| CC(C)(C)NCC(O)c1ccccc1Cl (centres unmarked) [TULOBUTEROL] | – | 2.06 |
| CCOC(=O)[C@H](CCc1ccccc1)N[C@H]1CS[C@H](c2cccs2)CN(CC(=O)O)C1=O [Temocapril HCl] | 1.877 | – |
| C[N+]1(C)[C@@H]2C[C@@H](OC(=O)C(O)(c3cccs3)c3cccs3)C[C@H]1[C@@H]1O[C@@H]12 [Tiotropium Bromide hydrate] | 1.593 | – |
| Cc1cccc(N(C)C(=S)Oc2ccc3ccccc3c2)c1 [Tolnaftate] | 1.5099 | – |
| CC[C@@]1(O)C(=O)OCc2c1cc1n(c2=O)Cc2cc3c(CN(C)C)c(O)ccc3nc2-1 [Topotecan hydrochloride hydrate] | 2.75 | 3.899 |
| NC[C@H]1CC[C@H](C(=O)O)CC1 [Tranexamic acid (Transamin), Tranexamic acid] | 1.582 | – |
| Nc1nc(N)c2nc(-c3ccccc3)c(N)nc2n1 [Triamterene] | – | 2.775 |
| O=c1[nH]c(=O)n([C@H]2C[C@H](O)[C@@H](CO)O2)cc1C(F)(F)F [Trifluridine (Viroptic), Trifluridine] | 2.117 | 1.773 |
| CN1[C@@H]2CC[C@H]1C[C@@H](OC(=O)c1c[nH]c3ccccc13)C2 [Tropisetron] | 1.694 | – |
| C[C@@H](CN1CCC(n2c(=O)[nH]c3cc(Cl)ccc32)CC1)NC(=O)c1ccc2ccccc2c1 [VU 0155069] | – | 1.618 |
| CCCCC(=O)N(Cc1ccc(-c2ccccc2-c2nnn[nH]2)cc1)[C@H](C(=O)O)C(C)C [Valsartan (Diovan), Valsartan] | 1.648 | – |
| CC[C@]1(O)C[C@@H]2CN(CCc3c([nH]c4ccccc34)[C@@](C(=O)OC)(c3cc4c(cc3OC)N(C)[C@H]3[C@@](O)(C(=O)OC)[C@H](OC(C)=O)[C@]5(CC)C=CCN6CC[C@]43[C@@H]65)C2)C1 [Vinblastine] | 3.124 | 1.771 |

Source: patent US20190015423A1, “REGULATION OF GENE EXPRESSION BY MODULATING PRIMARY CILIA LENGTH” (THE TRUSTEES OF COLUMBIA UNIVERSITY IN THE CITY OF NEW YORK, priority 2016, published 2019)
